Details in all cases: in vivo
Series [1] is described as follows: Mean residence time in cynomolgus monkey at 1 mg/kg, iv by LC-MS/MS analysis. It counts as ADME, organism-based, Macaca fascicularis.
Series [2] can be described thus: Volume of distribution in Sprague-Dawley rat at 1 mg/kg, iv by LC-MS/MS analysis. It counts as ADME, organism-based.
Series [3] can be described thus: Oral bioavailability in Sprague-Dawley rat at 3 mg/kg by LC-MS/MS analysis. It is filed as ADME, organism-based.
The nature of series [4]: Cmax in Sprague-Dawley rat at 3 mg/kg, po by LC-MS/MS analysis. It is filed as ADME, organism-based. On the set-up: dose 3 mg/kg, route oral.
Series [5] can be described thus: Mean residence time in Sprague-Dawley rat at 1 mg/kg, iv by LC-MS/MS analysis. It is filed as ADME, organism-based.
The nature of series [6]: Volume of distribution in cynomolgus monkey at 1 mg/kg, iv by LC-MS/MS analysis. It is filed as ADME, organism-based, Macaca fascicularis.
Series [7] can be described thus: AUC in Sprague-Dawley rat at 3 mg/kg, po by LC-MS/MS analysis. It is filed as ADME, organism-based.

Structures are written as SMILES.

For `COc1cc(C2CN(C(=O)c3cc(COC[C@@H](O)CO)ccn3)C2)ccc1OCc1ccc(C2CC2)cc1`, the results for the MRT in series [1] and in series [5] were 7.5 h and 1.46 h, respectively. Moreover, the Vd (commonly the apparent volume that relates the amount in the body to the concentration in plasma or blood) in series [2] turned out to be 3.27 L/kg; in series [6], 5 L/kg. Moreover, the bioavailability in series [3] was found to be 85.1%. Moreover, in series [4], the peak level (Cmax) was 490 nM. In addition, the area under the curve (AUC) (usually concentration integrated over time) in series [7] turned out to be 2.22 µM·h.
As for `COc1cc(C2CN(C(=O)c3cc(COCC(CO)(CO)CO)ccn3)C2)ccc1OCc1ccc(C2CC2)cc1`, the MRT (in general, a mean duration of stay, worked out from the concentration-time curve) in series [1] stood at 1.2 h; in series [5] it was 0.91 h. Moreover, the results for the distribution volume (Vd) in series [2] and in series [6] were 3.46 L/kg and 0.56 L/kg, respectively. In addition, the bioavailability in series [3] came to 116%. The concentration in series [4] peaked (Cmax) at 270 nM. In series [7], this compound displayed an AUC of 1.63 µM·h.
With `COc1cc(C2CN(C(=O)c3cc(OC[C@H](O)CO)ccn3)C2)ccc1OCc1ccc(C2CC2)cc1`, the mean residence time MRT is 0.28 h in series [1] and 1.37 h in series [5]. The distribution volume (Vd) in series [2] is 1.51 L/kg; in series [6], 0.76 L/kg. Moreover, in series [3], the bioavailability turned out to be 75.8%. The Cmax (usually the highest concentration seen after dosing) in series [4] worked out at 740 nM. Besides, in series [7], the exposure (AUC) is 4.15 µM·h.

The values are drawn from ChEMBL document CHEMBL4422686, “Optimization of an azetidine series as inhibitors of colony stimulating factor-1 receptor (CSF-1R) Type II to lead to the clinical candidate JTE-952” (Bioorg Med Chem Lett, 2019).
